Test results as given in paper PMC6573034 (Nature Communications, 2019).
“Also recorded” adds a separate entry of the source.

Key:
Type in all cases: cell-based
[1] = target: T1, SfMCT (Syntrophobacter fumaroxidans, UniProt A0LNN5); assay: Micro pH electrode-based transport assay, SfMCT-expressing E. coli JA202; settings: 10 mM compound (pH 6.5) added to bacterial suspension pH 6.7
T1 construct: expressed in transfected cells; host or cells: E. coli JA202 (MC4100 glcA::cat lldP::kan), plasmid pEXT20-SfMCT-3C-10His
T1 sequence (A0LNN5 1-412): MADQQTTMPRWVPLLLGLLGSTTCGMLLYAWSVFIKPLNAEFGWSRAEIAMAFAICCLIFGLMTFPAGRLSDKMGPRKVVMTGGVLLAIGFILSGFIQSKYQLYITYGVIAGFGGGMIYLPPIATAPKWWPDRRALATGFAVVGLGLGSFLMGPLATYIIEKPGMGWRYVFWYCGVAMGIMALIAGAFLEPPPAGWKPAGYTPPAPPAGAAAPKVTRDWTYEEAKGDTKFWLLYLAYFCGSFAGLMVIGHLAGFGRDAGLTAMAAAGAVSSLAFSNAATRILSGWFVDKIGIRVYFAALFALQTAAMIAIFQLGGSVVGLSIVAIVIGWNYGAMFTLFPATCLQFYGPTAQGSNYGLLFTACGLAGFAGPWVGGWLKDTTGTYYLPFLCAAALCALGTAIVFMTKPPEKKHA
Description: A measuring set up as previously reported[18] was used for micro pH electrode-based transport measurements. SfMCT was expressed in E. coli JA202 (MC4100 glcA::cat lldP::kan)[15] as described for uptake experiments. After expression, bacteria were pelleted (5,200 × g, 10 min, room temperature), washed twice in assay solution (250 mM KCl, 1 mM MgSO4, 2 mM CaCl2; 5,200 × g, 10 min, room temperature) and finally resuspended in assay solution to a bacterial density of OD600 15. Compounds that were assayed for proton-coupled transport were dissolved in assay solution and the pH was adjusted to 6.5. 800 µl of bacteria suspension were transferred into a 2 ml reaction tube (Eppendorf) and the pH value of the bacterial suspension (extracellular medium) was measured using a micro pH electrode with integrated temperature sensor (InLab Micro Pro, Mettler Toledo) under constant stirring. The pH of the bacterial suspension was adjusted to pH 6.7 using potassium hydroxide and hydrochloric acid. The SevenCompact pH-meter (Mettler Toledo), together with LabX direct pH 2.3 software (Mettler Toledo), were used for automatic recording in 15 s intervals. Measurements were initiated by adding 10 mM of the corresponding compound to the bacterial suspension. All experiments were performed at 24 °C.

[2] = target: T1, SfMCT; settings: wild-type (WT) SfMCT; competition of [14C]L-lactate uptake
Description: The cultures were grown at 37 °C and 180 r.p.m. in an incubator shaker (Multitron, Infors HT). Protein expression was induced at OD600 ~0.5 by addition of IPTG to a final concentration of 0.25 mM. After 4 h, bacteria were pelleted (5,200 × g, 10 min, room temperature) and resuspended in uptake buffer (20 mM Bis-Tris propane-HCl (pH 6.7), 250 mM KCl) to a bacteria density of OD600 12. […] Furthermore, [3-3 H] propionic acid sodium salt ([^3H]propionate, American Radiolabeled Chemicals, specific activity 30 Ci/mmol), n-[2,3-3 H] butyric acid sodium salt ([^3H]butyrate, American Radiolabeled Chemicals, specific activity 120 Ci/mmol), and [1–14 C] pyruvic acid sodium salt ([^14C]pyruvate, specific activity 0.055 Ci/mmol American Radiolabeled Chemicals) were also used for transport experiments. […] Uptake experiments were performed in 2 ml reaction tubes (Eppendorf) at 30 °C under agitation (1,000 r.p.m., Thermomixer compact, Eppendorf). […] Bacteria were immediately pelleted by centrifugation (21,000 × g, 4 min, room temperature) and washed two times with 900 μl stop buffer. Finally, bacteria were lyzed in 50 μl 5% (w/v) sodium dodecylsulfate and transferred into a white 96-well plate (Optiplate, PerkinElmer). 150 µl of scintillation cocktail (MicroScint 40, PerkinElmer) were added before measuring each reaction for 2 min with a scintillation counter (TopCount NXT, PerkinElmer). For data analysis, the signal of the empty vector was subtracted from the transporter signal. […] Cpm values of each experiment were normalized with respect to the determined upper plateau value, i.e., the fitted upper plateau value corresponds to 100%. The arithmetic average of three independent experiments was calculated. Three independent and normalized pH-dependence curves were then averaged. For data analysis Prism6 (GraphPad Software) was used. […] Equal amounts of bacteria expressing SfMCT variants were loaded on 14% SDS/polyacrylamide gels. His-tagged transporters were detected using an anti-His5 (Qiagen, catalogue number 34660, primary antibody) at a dilution of 1:3,000 and a goat anti-mouse IgG (H + L) HRP conjugate antibody (Biorad, catalogue number 172-1011, secondary antibody) at a dilution of 1:2,500.

[3] = target: T2, Y331F SfMCT (Syntrophobacter fumaroxidans, UniProt A0LNN5, Y331F); assay: [14C]L-lactate transport competition assay, Y331F SfMCT; settings: competition of [14C]L-lactate uptake
T2 construct: expressed in transfected cells; host or cells: E. coli JA202, pEXT20-SfMCT-3C-10His mutant plasmid
T2 sequence (A0LNN5 whole entry Y331F): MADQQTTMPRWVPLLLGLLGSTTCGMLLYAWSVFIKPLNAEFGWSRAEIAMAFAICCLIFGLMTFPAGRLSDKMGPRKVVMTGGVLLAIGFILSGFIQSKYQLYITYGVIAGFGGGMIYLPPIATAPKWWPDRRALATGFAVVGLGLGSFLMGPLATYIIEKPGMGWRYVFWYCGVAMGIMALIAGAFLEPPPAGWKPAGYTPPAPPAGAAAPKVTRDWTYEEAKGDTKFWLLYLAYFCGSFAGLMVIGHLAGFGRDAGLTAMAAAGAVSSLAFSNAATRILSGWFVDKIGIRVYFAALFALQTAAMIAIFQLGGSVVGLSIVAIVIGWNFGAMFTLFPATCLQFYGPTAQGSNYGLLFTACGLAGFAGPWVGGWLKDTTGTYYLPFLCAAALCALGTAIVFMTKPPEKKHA
Description: The cultures were grown at 37 °C and 180 r.p.m. in an incubator shaker (Multitron, Infors HT). Protein expression was induced at OD600 ~0.5 by addition of IPTG to a final concentration of 0.25 mM. After 4 h, bacteria were pelleted (5,200 × g, 10 min, room temperature) and resuspended in uptake buffer (20 mM Bis-Tris propane-HCl (pH 6.7), 250 mM KCl) to a bacteria density of OD600 12. […] Furthermore, [3-3 H] propionic acid sodium salt ([^3H]propionate, American Radiolabeled Chemicals, specific activity 30 Ci/mmol), n-[2,3-3 H] butyric acid sodium salt ([^3H]butyrate, American Radiolabeled Chemicals, specific activity 120 Ci/mmol), and [1–14 C] pyruvic acid sodium salt ([^14C]pyruvate, specific activity 0.055 Ci/mmol American Radiolabeled Chemicals) were also used for transport experiments. […] Cpm values of each experiment were normalized with respect to the determined upper plateau value, i.e., the fitted upper plateau value corresponds to 100%. The arithmetic average of three independent experiments was calculated. […] His-tagged transporters were detected using an anti-His5 (Qiagen, catalogue number 34660, primary antibody) at a dilution of 1:3,000 and a goat anti-mouse IgG (H + L) HRP conjugate antibody (Biorad, catalogue number 172-1011, secondary antibody) at a dilution of 1:2,500.

`O=C(O)c1ccccc1S` [TSA, thiosalicylate] was tested, and the “proton-coupled transport, change of extracellular pH (in words)” value [1] was “not a substrate; also recorded: not transported”, the Ki [2] was 120 µM and the Ki [3] was 1380 µM.
